Results reported in patent US9328112B2, “Tetracyclic CDK9 kinase inhibitors” (AbbVie Inc., priority 2014, dated 2016).
Structures can show the parent of a compound that is named as a salt.

How the values were obtained:
CDK9/Cyclin T1 = CDK9/Cyclin T1 (Homo sapiens (Human), UniProt P50750); experiment: CDK9 enzyme assay (LANCE ULight TR-FRET kinase assay); format: biochemical; conditions: 1000 μM ATP, 100 nM ULight MBP, kinase reaction 1 hour
Experimental: CDK9 enzyme activities were measured using LANCE ULight TR-FRET kinase assay reagents (PerkinElmer, Waltham, Mass.). Compounds were diluted in 100% DMSO then diluted with 1:10 in serine/threonine kinase assay buffer containing 20 mM HEPES, 10 mM MgCl2, […], and 0.0075% Triton X-100. Equal volume of the compound dilutions was added to a final reaction mixture containing LANCE detection buffer (PerkinElmer CR97-100), 100 nM ULight MBP (PerkinElmer TRF0109M), 1000 μM ATP, and CDK9/Cyclin T1 (Carna Biosciences 04-110). The kinase reaction was carried out for 1 hour before addition of stopping buffer to a final of 20 mM EDTA and 0.5 nM of LANCE Ultra Europium anti-phospho-MBP antibody (PerkinElmer TRF0201M) in LANCE detection buffer. The reaction was incubated for 1 hour and the signal was read in Envision in TR-FRET mode (excitation at 320 nm and emission at 615/665 nm).

H929 cells = experiment: Cell viability assay (Cell TiterGlo); format: cell-based; conditions: Homo sapiens, NCI-H929, 24 hours at 37° C., Cell TiterGlo luminescence
Experimental: The cell viability assay was performed using H929 cells. Cells were seeded in 96-well plates at 10,000 cells/well and, after overnight incubation, treated with compounds in a dose response of 3-fold dilutions from 10 μM to 0.005 μM ([…], 0.1% final DMSO concentration). After 24 hours at 37° C., cell viability was measured using Cell TiterGlo reagent (Promega) with a luminescence reader.

Sequence of CDK9/Cyclin T1 (P50750 whole entry): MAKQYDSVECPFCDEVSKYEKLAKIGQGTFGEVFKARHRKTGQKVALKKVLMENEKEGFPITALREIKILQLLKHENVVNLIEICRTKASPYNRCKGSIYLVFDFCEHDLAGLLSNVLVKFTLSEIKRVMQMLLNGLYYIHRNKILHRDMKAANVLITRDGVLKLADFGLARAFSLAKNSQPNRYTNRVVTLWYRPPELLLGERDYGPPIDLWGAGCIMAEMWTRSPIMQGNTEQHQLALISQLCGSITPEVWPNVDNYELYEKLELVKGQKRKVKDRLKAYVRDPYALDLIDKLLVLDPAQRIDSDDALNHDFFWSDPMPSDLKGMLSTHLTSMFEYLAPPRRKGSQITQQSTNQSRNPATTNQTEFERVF
Sequence of CDK9/Cyclin T1 (O60563 whole entry partner): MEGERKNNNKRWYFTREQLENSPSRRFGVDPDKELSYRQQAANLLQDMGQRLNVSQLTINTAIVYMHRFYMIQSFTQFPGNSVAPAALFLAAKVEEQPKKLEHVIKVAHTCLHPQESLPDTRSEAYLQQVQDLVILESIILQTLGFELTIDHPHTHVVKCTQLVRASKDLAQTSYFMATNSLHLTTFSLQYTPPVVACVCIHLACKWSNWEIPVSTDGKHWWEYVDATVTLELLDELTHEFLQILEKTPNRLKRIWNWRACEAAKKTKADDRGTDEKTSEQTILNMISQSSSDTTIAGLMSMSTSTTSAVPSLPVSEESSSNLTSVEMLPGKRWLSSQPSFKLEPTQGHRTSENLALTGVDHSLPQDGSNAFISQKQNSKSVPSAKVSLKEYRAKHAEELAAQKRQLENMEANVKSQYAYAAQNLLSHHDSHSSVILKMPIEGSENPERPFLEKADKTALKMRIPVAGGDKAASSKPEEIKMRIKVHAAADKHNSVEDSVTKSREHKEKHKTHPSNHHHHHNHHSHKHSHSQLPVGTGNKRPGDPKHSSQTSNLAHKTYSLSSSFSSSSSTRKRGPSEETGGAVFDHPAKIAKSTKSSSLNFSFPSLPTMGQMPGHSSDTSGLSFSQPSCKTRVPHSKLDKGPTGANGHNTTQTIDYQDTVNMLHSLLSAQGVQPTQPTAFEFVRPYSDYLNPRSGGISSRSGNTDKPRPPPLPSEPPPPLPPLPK

SMILES	IC50 (CDK9/Cyclin T1) [nM]	IC50 (H929 cells) [nM]
CCC1c2c(C3=CCN(S(C)(=O)=O)CC3)[nH]c3nccc(c23)-c2cc(F)ccc2N1C (stereo not shown) [Example 11, 6-ethyl-10-fluoro-7-methyl-5-[1-(methylsulfonyl)-1,2,3,6-tetrahydropyridin-4-yl]-6,7-dihydro-4H-3,4,7-triazadibenzo[cd,f]azulene]	120	32
CN(C)C(=O)CN1CC=C(c2[nH]c3nccc4c3c2CN(C)c2ccc(F)cc2-4)CC1 [Example 12, 2-[4-(10-fluoro-7-methyl-6,7-dihydro-4H-3,4,7-triazadibenzo[cd,f]azulen-5-yl)-3,6-dihydropyridin-1(2H)-yl]-N,N-dimethylacetamide]	51	42
Fc1ccc2c(c1)-c1ccnc3[nH]c(C4=CCNCC4)c(c13)CO2 [Example 14, 10-fluoro-5-(1,2,3,6-tetrahydropyridin-4-yl)-4,6-dihydro-7-oxa-3,4-diazadibenzo[cd,f]azulene]	20	180
CN1Cc2c(C3=CCN(CC(=O)O)CC3)[nH]c3nccc(c23)-c2cc(F)ccc21 [Example 16, [4-(10-fluoro-7-methyl-6,7-dihydro-4H-3,4,7-triazadibenzo[cd,f]azulen-5-yl)-3,6-dihydropyridin-1(2H)-yl]acetic acid dihydrochloride]	61	220
CN1Cc2c(C3=CCN(CC(=O)N4CC(O)C4)CC3)[nH]c3nccc(c23)-c2cc(F)ccc21 [Example 18, 2-[4-(10-fluoro-7-methyl-6,7-dihydro-4H-3,4,7-triazadibenzo[cd,f]azulen-5-yl)-3,6-dihydropyridin-1(2H)-yl]-1-(3-hydroxyazetidin-1-yl)ethanone]	44	160
CN(CCO)C(=O)CN1CC=C(c2[nH]c3nccc4c3c2CN(C)c2ccc(F)cc2-4)CC1 [Example 19, 2-[4-(10-fluoro-7-methyl-6,7-dihydro-4H-3,4,7-triazadibenzo[cd,f]azulen-5-yl)-3,6-dihydropyridin-1(2H)-yl]-N-(2-hydroxyethyl)-N-methylacetamide]	48	8
CN1Cc2c(C3CCNCC3)[nH]c3nccc(c23)-c2cc(F)ccc21 [Example 21, 10-fluoro-7-methyl-5-(piperidin-4-yl)-6,7-dihydro-4H-3,4,7-triazadibenzo[cd,f]azulene]	400	460
CCOC(=O)C1c2c(C3=CCNCC3)[nH]c3nccc(c23)-c2cc(F)ccc2N1C (stereo not shown) [Example 28, ethyl 10-fluoro-7-methyl-5-(1,2,3,6-tetrahydropyridin-4-yl)-6,7-dihydro-4H-3,4,7-triazadibenzo[cd,f]azulene-6-carboxylate]	150	25
CN1c2ccc(F)cc2-c2ccnc3[nH]c(C4=CCNCC4)c(c23)C1C(=O)O (stereo not shown) [Example 33, 10-fluoro-7-methyl-5-(1,2,3,6-tetrahydropyridin-4-yl)-6,7-dihydro-4H-3,4,7-triazadibenzo[cd,f]azulene-6-carboxylic acid]	540	150
CC(C)[C@H](NC1CC=C(c2[nH]c3nccc4c3c2CN(C)c2ccc(F)cc2-4)CC1)C(=O)O (stereo partly drawn) [Example 34, N-[4-(10-fluoro-7-methyl-6,7-dihydro-4H-3,4,7-triazadibenzo[cd,f]azulen-5-yl)cyclohex-3-en-1-yl]-L-valine]	120	92
CN1Cc2c(C3=CCC(N4CCC[C@H]4C(=O)O)CC3)[nH]c3nccc(c23)-c2cc(F)ccc21 (stereo partly drawn) [Example 37, 1-[4-(10-fluoro-7-methyl-6,7-dihydro-4H-3,4,7-triazadibenzo[cd,f]azulen-5-yl)cyclohex-3-en-1-yl]-L-proline]	160	290
CCC[C@H](NC1CC=C(c2[nH]c3nccc4c3c2CN(C)c2ccc(F)cc2-4)CC1)C(=O)O (stereo partly drawn) [Example 39, N-[4-(10-fluoro-7-methyl-6,7-dihydro-4H-3,4,7-triazadibenzo[cd,f]azulen-5-yl)cyclohex-3-en-1-yl]-L-norvaline]	130	99

More lines, in order of falling IC50 (CDK9/Cyclin T1), values ahead:

IC50 (CDK9/Cyclin T1) [nM]	IC50 (H929 cells) [nM]	SMILES
110	47	CC1c2c(C3=CCN(S(C)(=O)=O)CC3)[nH]c3nccc(c23)-c2cc(F)ccc2N1C (stereo not shown) [Example 20, 10-fluoro-6,7-dimethyl-5-[1-(methylsulfonyl)-1,2,3,6-tetrahydropyridin-4-yl]-6,7-dihydro-4H-3,4,7-triazadibenzo[cd,f]azulene]
100	100	C[C@H](NC1CC=C(c2[nH]c3nccc4c3c2CN(C)c2ccc(F)cc2-4)CC1)C(=O)O (stereo partly drawn) [Example 30, N-[4-(10-fluoro-7-methyl-6,7-dihydro-4H-3,4,7-triazadibenzo[cd,f]azulen-5-yl)cyclohex-3-en-1-yl]-L-alanine]
94	590	CS(=O)(=O)N1CC=C(c2[nH]c3nccc4c3c2COc2ccc(F)cc2-4)CC1 [Example 15, 10-fluoro-5-[1-(methylsulfonyl)-1,2,3,6-tetrahydropyridin-4-yl]-4,6-dihydro-7-oxa-3,4-diazadibenzo[cd,f]azulene]
93	150	CN1Cc2c(C3CCN(CC(=O)N4CCC[C@H]4CO)CC3)[nH]c3nccc(c23)-c2cc(F)ccc21 [Example 26, 2-[4-(10-fluoro-7-methyl-6,7-dihydro-4H-3,4,7-triazadibenzo[cd, f]azulen-5-yl)piperidin-1-yl]-1-[(2S)-2-(hydroxymethyl)pyrrolidin-1-yl]ethanone]
91	210	CN(CCO)C(=O)CN1CCC(c2[nH]c3nccc4c3c2CN(C)c2ccc(F)cc2-4)CC1 [Example 27, 2-[4-(10-fluoro-7-methyl-6,7-dihydro-4H-3,4,7-triazadibenzo[cd,f]azulen-5-yl)piperidin-1-yl]-N-(2-hydroxyethyl)-N-methylacetamide]
91	270	CN1Cc2c(C3=CCC(N[C@@H](CO)C(=O)O)CC3)[nH]c3nccc(c23)-c2cc(F)ccc21 (stereo partly drawn) [Example 38, N-[4-(10-fluoro-7-methyl-6,7-dihydro-4H-3,4,7-triazadibenzo[cd,f]azulen-5-yl)cyclohex-3-en-1-yl]-L-serine]
86	70	CN1Cc2c(C3=CCC(NCC(=O)O)CC3)[nH]c3nccc(c23)-c2cc(F)ccc21 (stereo not shown) [Example 31, N-[4-(10-fluoro-7-methyl-6,7-dihydro-4H-3,4,7-triazadibenzo[cd,f]azulen-5-yl)cyclohex-3-en-1-yl]glycine]
70	9	CN1Cc2c(C3=CCN(CC(=O)N4CCC[C@H]4CO)CC3)[nH]c3nccc(c23)-c2cc(F)ccc21 [Example 17, 2-[4-(10-fluoro-7-methyl-6,7-dihydro-4H-3,4,7-triazadibenzo[cd,f]azulen-5-yl)-3,6-dihydropyridin-1(2H)-yl]-1-[(2S)-2-(hydroxymethyl)pyrrolidin-1-yl]ethanone]
64	25	CN1Cc2c(C3=CCC(N[C@H](C(=O)O)C(C)(C)C)CC3)[nH]c3nccc(c23)-c2cc(F)ccc21 (stereo partly drawn) [Example 36, N-[4-(10-fluoro-7-methyl-6,7-dihydro-4H-3,4,7-triazadibenzo[cd,f]azulen-5-yl)cyclohex-3-en-1-yl]-3-methyl-L-valine]
61	91	CN1Cc2c(C3=CCC(N[C@@H](Cc4ccccc4)C(=O)O)CC3)[nH]c3nccc(c23)-c2cc(F)ccc21 (stereo partly drawn) [Example 35, N-[4-(10-fluoro-7-methyl-6,7-dihydro-4H-3,4,7-triazadibenzo[cd,f]azulen-5-yl)cyclohex-3-en-1-yl]-L-phenylalanine]
56	170	CN1Cc2c(C3=CCC(N[C@H](C(=O)O)c4ccccc4)CC3)[nH]c3nccc(c23)-c2cc(F)ccc21 (stereo partly drawn) [Example 32, (2S)-{[4-(10-fluoro-7-methyl-6,7-dihydro-4H-3,4,7-triazadibenzo[cd,f]azulen-5-yl)cyclohex-3-en-1-yl]amino}(phenyl)acetic acid]
46	94	CC(C)[C@@H](NC1CC=C(c2[nH]c3nccc4c3c2CN(C)c2ccc(F)cc2-4)CC1)C(=O)O (stereo partly drawn) [Example 29, N-[4-(10-fluoro-7-methyl-6,7-dihydro-4H-3,4,7-triazadibenzo[cd,f]azulen-5-yl)cyclohex-3-en-1-yl]-D-valine]
40	27	CN1Cc2c(C3=CCN(CC(=O)N(C)C4CC(O)C4)CC3)[nH]c3nccc(c23)-c2cc(F)ccc21 (stereo not shown) [Example 24, 2-[4-(10-fluoro-7-methyl-6,7-dihydro-4H-3,4,7-triazadibenzo[cd,f]azulen-5-yl)-3,6-dihydropyridin-1(2H)-yl]-N-(3-hydroxycyclobutyl)-N-methylacetamide]
22	65	CNS(=O)(=O)CC(=O)N1CC=C(c2[nH]c3nccc4c3c2CN(C)c2ccc(F)cc2-4)CC1 [Example 25, 2-[4-(10-fluoro-7-methyl-6,7-dihydro-4H-3,4,7-triazadibenzo[cd,f]azulen-5-yl)-3,6-dihydropyridin-1(2H)-yl]-N-methyl-2-oxoethanesulfonamide]
